Laboratory results: paper PMC9223764, “In Vitro Selection and Characterization of HIV-1 Variants with Increased Resistance to LP-40, Enfuvirtide-Based Lipopeptide Inhibitor” (International Journal of Molecular Sciences, 2022)
Where a SMILES comes first, the peptide text is derived from it. The star is where a group is joined. Palmitoyl = CCCCCCCCCCCCCCCC(=O)*

Assays:
Assay type in all cases: cell-based
[1] = system: T20-V10 pseudovirus (HIV-1 NL4-3 Env mutant); conditions: for IC50: T20-V10 (Env selected at T20 200 µM, P21), TZM-bl cells, 48 h, luciferase, mean ± SD, triplicate, repeated three times
Description: (§1) To simulate the sequence changes of viral resistance genes under different drug concentration pressures, we constructed the Env genes under different drug concentration pressures in the PCDNA3.1 vector and obtained a series of mutations. […] T20-V 6~12, T20-V 13~14, and T 20-V 15~18 were constructed at concentrations of 200 µM (P21), 400 µM (P24), and 2000 µM (P32), respectively. Similarly, the LP-40 pressure concentrations were 0.3 µM, 8 µM, 20 µM, and 200 µM, respectively, and the constructs were numbered LP40-V 1~5, LP40-V 6~8, LP40-V 9~11, and LP40-V 12~15. Resistance mutations will cause varying levels of damage to the function of the pseudoviral envelope proteins. Here, we explored how serial mutations affect the function of viral envelope proteins. Based on this problem, we performed a single round of quantitative P24-infection experiments, packaging the pseudovirus with a previously constructed series of mutant plasmids. We compared the invasion ability of the HIV-1 wild-type and mutant pseudoviruses toward target cells under the same P24 content (using the invasion capacity of each subtype as 100%).
(§2) The infectivity of HIV Env mutants and the inhibitory activities of membrane fusion inhibitors on mutants in TZM-bl cells were measured using a single-cycle infection assay as described previously. Briefly, the HIV pseudovirus was packed using an Env-coding plasmid, and pSG3ΔEnv was co-transfected into HEK293T cells. pSG3ΔEnv encodes an Env-defective, luciferase-expressing HIV-1 genome. After the pseudoviruses were harvested and filtrated, the amount of pseudoviruses was fixed via P24 antigen, and their infectivity was determined in TZM-bl cells. In order to measure the inhibitory activities of the inhibitors, inhibitors diluted serially 3-fold were mixed with an equal volume of pseudoviruses, and then 100 µL 1 × 10^5/mL TZM-bl cells were added to the mixture and incubated at 37 °C with 5% CO2 for 48 h. After that, TZM-bl cells were lysed using reporter lysis buffer, and IC50 values were calculated according to luciferase activity measured by luciferase assay reagents and a luminescence counter (Promega, Madison, WI, USA).

[2] = system: T20-V3 pseudovirus (HIV-1 NL4-3 Env mutant); conditions: for IC50: T20-V3 (Env selected at T20 12 µM, P9), TZM-bl cells, 48 h, luciferase, mean ± SD, triplicate, repeated three times
Description: as §1, §2

[3] = system: T20-V15 pseudovirus (HIV-1 NL4-3 Env mutant); conditions: for IC50: T20-V15 (Env selected at T20 2000 µM, P32), TZM-bl cells, 48 h, luciferase, mean ± SD, triplicate, repeated three times
Description: as §1, §2

[4] = system: LP40-V11 pseudovirus (HIV-1 NL4-3 Env mutant); conditions: for IC50: LP40-V11 (Env selected at LP-40 20 µM), TZM-bl cells, 48 h, luciferase, mean ± SD, triplicate, repeated three times
Description: as §1, §2

[5] = system: T20-V6 pseudovirus (HIV-1 NL4-3 Env mutant); conditions: for IC50: T20-V6 (Env selected at T20 200 µM, P21), TZM-bl cells, 48 h, luciferase, mean ± SD, triplicate, repeated three times
Description: as §1, §2

[6] = system: LP40-V1 pseudovirus (HIV-1 NL4-3 Env mutant); conditions: for IC50: LP40-V1 (Env selected at LP-40 0.3 µM), TZM-bl cells, 48 h, luciferase, mean ± SD, triplicate, repeated three times
Description: as §1, §2

[7] = system: T20-V13 pseudovirus (HIV-1 NL4-3 Env mutant); conditions: for IC50: T20-V13 (Env selected at T20 400 µM, P24), TZM-bl cells, 48 h, luciferase, mean ± SD, triplicate, repeated three times
Description: as §1, §2

[8] = system: LP40-V8 pseudovirus (HIV-1 NL4-3 Env mutant); conditions: for IC50: LP40-V8 (Env selected at LP-40 8 µM), TZM-bl cells, 48 h, luciferase, mean ± SD, triplicate, repeated three times
Description: as §1, §2

[9] = system: T20-V4 pseudovirus (HIV-1 NL4-3 Env mutant); conditions: for IC50: T20-V4 (Env selected at T20 12 µM, P9), TZM-bl cells, 48 h, luciferase, mean ± SD, triplicate, repeated three times
Description: as §1, §2

[10] = system: T20-V1 pseudovirus (HIV-1 NL4-3 Env mutant); conditions: for IC50: T20-V1 (Env selected at T20 12 µM, P9), TZM-bl cells, 48 h, luciferase, mean ± SD, triplicate, repeated three times
Description: as §1, §2

[11] = system: LP40-V13 pseudovirus (HIV-1 NL4-3 Env mutant); conditions: for IC50: LP40-V13 (Env selected at LP-40 200 µM), TZM-bl cells, 48 h, luciferase, mean ± SD, triplicate, repeated three times
Description: as §1, §2

[12] = system: T20-V14 pseudovirus (HIV-1 NL4-3 Env mutant); conditions: for IC50: T20-V14 (Env selected at T20 400 µM, P24), TZM-bl cells, 48 h, luciferase, mean ± SD, triplicate, repeated three times
Description: as §1, §2

[13] = system: LP40-V12 pseudovirus (HIV-1 NL4-3 Env mutant); conditions: for IC50: LP40-V12 (Env selected at LP-40 200 µM), TZM-bl cells, 48 h, luciferase, mean ± SD, triplicate, repeated three times
Description: as §1, §2

[14] = system: T20-V2 pseudovirus (HIV-1 NL4-3 Env mutant); conditions: for IC50: T20-V2 (Env selected at T20 12 µM, P9), TZM-bl cells, 48 h, luciferase, mean ± SD, triplicate, repeated three times
Description: as §1, §2

[15] = system: T20-V16 pseudovirus (HIV-1 NL4-3 Env mutant); conditions: for IC50: T20-V16 (Env selected at T20 2000 µM, P32), TZM-bl cells, 48 h, luciferase, mean ± SD, triplicate, repeated three times
Description: as §1, §2

Compound: CCCCCCCCCCCCCCCC(=O)NCCCC[C@H](NC(=O)[C@H](CC(=O)O)NC(=O)[C@H](CC(C)C)NC(=O)[C@H](CCC(=O)O)NC(=O)[C@H](CC(C)C)NC(=O)[C@H](CC(C)C)NC(=O)[C@H](CCC(=O)O)NC(=O)[C@H](CCC(N)=O)NC(=O)[C@H](CCC(=O)O)NC(=O)[C@H](CC(N)=O)NC(=O)[C@H](CCCCN)NC(=O)[C@H](CCC(=O)O)NC(=O)[C@H](CCC(N)=O)NC(=O)[C@H](CCC(N)=O)NC(=O)[C@H](CC(N)=O)NC(=O)[C@H](CCC(N)=O)NC(=O)[C@H](CO)NC(=O)[C@H](CCC(=O)O)NC(=O)[C@H](CCC(=O)O)NC(=O)[C@@H](NC(=O)[C@H](CC(C)C)NC(=O)[C@H](CO)NC(=O)[C@H](Cc1c[nH]cn1)NC(=O)[C@@H](NC(=O)[C@H](CC(C)C)NC(=O)[C@H](CO)NC(=O)[C@@H](NC(=O)[C@H](Cc1ccc(O)cc1)NC(C)=O)[C@@H](C)O)[C@@H](C)CC)[C@@H](C)CC)C(N)=O [LP-40] (Ac-YTSLIHSLIEESQNQQEKNEQELLELDK(Palmitoyl)-NH2)
- IC50 [1]: 6080 ± 1170 nM
- Fold change in IC50 ([1]; T20-V10 relative to WT NL4-3, Table 1): 204.88 fold
- IC50 [2]: 70.5 ± 8.56 nM
- Fold change in IC50 ([2]; T20-V3 relative to WT NL4-3, Table 1): 2.38 fold
- IC50 [3]: > 6250 nM
- Fold change in IC50 ([3]; T20-V15 relative to WT NL4-3, Table 1): >227.43 fold
- IC50 [4]: 3330 ± 978 nM
- Fold change in IC50 ([4]; LP40-V11 relative to WT NL4-3, Table 1): 112.32 fold
- IC50 [5]: 3510 ± 631 nM
- Fold change in IC50 ([5]; T20-V6 relative to WT NL4-3, Table 1): 118.37 fold
- IC50 [6]: 44.9 ± 4.39 nM
- Fold change in IC50 ([6]; LP40-V1 relative to WT NL4-3, Table 1): 1.51 fold
- IC50 [7]: 3190 ± 207 nM
- Fold change in IC50 ([7]; T20-V13 relative to WT NL4-3, Table 1): 107.32 fold
- IC50 [8]: 2880 ± 1070 nM
- Fold change in IC50 ([8]; LP40-V8 relative to WT NL4-3, Table 1): 97.17 fold
- IC50 [9]: 76.6 ± 19.7 nM
- Fold change in IC50 ([9]; T20-V4 relative to WT NL4-3, Table 1): 2.58 fold
- IC50 [10]: 40.1 ± 8.62 nM
- Fold change in IC50 ([10]; T20-V1 relative to WT NL4-3, Table 1): 1.35 fold
- IC50 [11]: > 6250 nM
- Fold change in IC50 ([11]; LP40-V13 relative to WT NL4-3, Table 1): >227.43 fold
- IC50 [12]: 2900 ± 85.1 nM
- Fold change in IC50 ([12]; T20-V14 relative to WT NL4-3, Table 1): 97.57 fold
- IC50 [13]: > 6250 nM
- Fold change in IC50 ([13]; LP40-V12 relative to WT NL4-3, Table 1): >227.43 fold
- IC50 [14]: 59.2 ± 15.9 nM
- Fold change in IC50 ([14]; T20-V2 relative to WT NL4-3, Table 1): 2.00 fold
- IC50 [15]: > 6250 nM
- Fold change in IC50 ([15]; T20-V16 relative to WT NL4-3, Table 1): >227.43 fold

Compound: Enfuvirtide
- IC50 [1]: 3340 ± 433 nM
- IC50 [2]: 78.9 ± 12.1 nM
- IC50 [3]: 2090 ± 248 nM
- IC50 [4]: 4350 ± 522 nM
- IC50 [5]: 3850 ± 516 nM
- IC50 [6]: 59.8 ± 16.3 nM
- IC50 [7]: 4010 ± 571 nM
- IC50 [8]: 1150 ± 137 nM
- IC50 [9]: 53.1 ± 14.9 nM
- IC50 [10]: 57.7 ± 7.23 nM
- IC50 [11]: 5170 ± 2460 nM
- IC50 [12]: 4430 ± 967 nM
- IC50 [13]: 5870 ± 978 nM
- IC50 [14]: 147 ± 39.4 nM
- IC50 [15]: 1740 ± 229 nM
